The results in this text go back to ChEMBL document CHEMBL6087454, “Identification of Novel Organo-Se BTSA-Based Derivatives as Potent, Reversible, and Selective PPARγ Covalent Modulators for Antidiabetic Drug Discovery” (J Med Chem, 2025).

Series [1] concerns the target T1, Peroxisome proliferator-activated receptor gamma (Homo sapiens, UniProt P37231).
T1 sequence (P37231 whole entry): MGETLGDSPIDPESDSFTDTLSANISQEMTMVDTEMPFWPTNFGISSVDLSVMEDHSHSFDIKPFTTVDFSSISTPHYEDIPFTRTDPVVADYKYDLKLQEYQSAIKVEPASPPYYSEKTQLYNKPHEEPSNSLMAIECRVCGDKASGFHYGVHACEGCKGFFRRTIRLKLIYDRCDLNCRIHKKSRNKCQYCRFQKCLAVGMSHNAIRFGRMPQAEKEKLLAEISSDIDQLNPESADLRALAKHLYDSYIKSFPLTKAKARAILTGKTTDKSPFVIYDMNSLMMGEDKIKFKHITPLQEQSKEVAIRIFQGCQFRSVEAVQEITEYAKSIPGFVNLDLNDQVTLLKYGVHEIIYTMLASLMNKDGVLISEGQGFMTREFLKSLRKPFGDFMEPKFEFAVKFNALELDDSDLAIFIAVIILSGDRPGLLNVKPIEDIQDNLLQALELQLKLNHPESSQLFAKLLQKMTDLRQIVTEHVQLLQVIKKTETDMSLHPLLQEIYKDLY
Nature of the series: Displacement of fluormone pan-PPAR green from recombinant GST-tagged human PPAR-gamma ligand binding domain (E235 to Y505 residues) extracted from Escherichia coli BL21 (DE3) cells by TR-FRET assay. (In general: TR-FRET usually uses a lanthanide donor and a delayed reading to cut background.)

The target of series [2] is T1, Peroxisome proliferator-activated receptor gamma. Briefly: Binding affinity to recombinant GST-tagged human PPAR-gamma ligand binding domain (E235 to Y505 residues) extracted from Escherichia coli BL21 (DE3) cells assessed as inhibition constant in presence of fluormone pan-PPAR green tracer by TR-FRET assay.
Series [3] addresses T2, Peroxisome proliferator-activated receptor gamma (Homo sapiens) (UniProt P37231).
T2 sequence (whole entry): T1 sequence (P37231 whole entry)
Nature of the series: Covalent binding affinity to recombinant PPAR-gamma ligand binding domain (unknown origin) at Cys285 residue at 0.4 uM incubated for 30 mins by rhodamine-maleimide staining based SDS-PAGE analysis.

The next series relates to 3T3-L1. Briefly: Induction of adipocyte differentiation in mouse 3T3-L1 cells assessed as lipid accumulation at 1 uM measured after 48 hrs in presence of 1-oxido-1-(4-(tosyloxy)phenyl)-1lambda4-benzo[d][1,3,2]thiaselenazol-5-yl 4-methylbenzenesulfonate by Oil red O staining based inverted microscopic analysis. The class given is functional, cell-based.
The nature of series [4]: Toxicity in male db/db mouse model assessed as hepatomegaly in liver at 10 mg/kg/day, po administered for 4 weeks. The settings on record: in vivo, 672 h. The class given is organism-based.
Series [5] is described as follows: Toxicity in male db/db mouse model assessed as lipid accumulation in liver at 10 mg/kg/day, po administered for 4 weeks. The class given is organism-based. The settings on record: in vivo, 672 h.
The nature of series [6]: Toxicity in male db/db mouse model assessed as increase in liver weight at 10 mg/kg/day, po administered for 4 weeks. The format is organism-based. The settings on record: in vivo, 672 h.
A short description of series [7]: Toxicity in male db/db mouse model assessed as increase in serum ALT level at 10 mg/kg/day, po administered for 4 weeks by ELISA. The class given is organism-based. The settings on record: in vivo, 672 h.
The nature of series [8]: Toxicity in male db/db mouse model assessed as increase in serum AST level at 10 mg/kg/day, po administered for 4 weeks by ELISA. The format is organism-based. The settings on record: in vivo, 672 h. In general terms: An ELISA detects its analyte on a solid surface through an enzyme-linked reagent.
Series [9] in a line: Toxicity in male db/db mouse model assessed as increase in blood cholesterol level at 10 mg/kg/day, po administered for 4 weeks by ELISA. The format is organism-based. To be noted: in vivo, 672 h.
Series [10] in a line: Toxicity in male db/db mouse model assessed as increase in blood triglyceride level at 10 mg/kg/day, po administered for 4 weeks by ELISA. The class given is organism-based. To be noted: in vivo, 672 h.
Series [11] is described as follows: Toxicity in male db/db mouse model assessed as increase in lipid accumulation in liver at 10 mg/kg/day, po administered for 4 weeks by Oil red O staining based analysis. The class given is organism-based. The settings on record: in vivo, 672 h.
Series [12] is described as follows: Toxicity in male db/db mouse model assessed as increase in white adipocytes size at 10 mg/kg/day, po administered for 4 weeks by H and E staining based analysis. To be noted: in vivo, 672 h. The format is organism-based.
Series [13] in a line: Toxicity in male db/db mouse model assessed as increase in brown adipocytes size at 10 mg/kg/day, po administered for 4 weeks by H and E staining based analysis. The format is organism-based. To be noted: in vivo, 672 h.

The source made the active and inactive calls. The rule behind the calls is not given here.

Consider `O=S1(c2ccc(-c3ccccc3)cc2)=N[Se]c2cc(-c3ccccc3)ccc21` (stereo not given), for which the IC50 (as a rule, the midpoint of a concentration-inhibition curve) in [1] was 1.68 µM. Further, in series [2], the Ki (usually a dissociation constant, usually derived from enzyme kinetics or from competition with a known ligand) was determined as 0.6 µM.

`O=[N+]([O-])c1ccc(S2(=O)=N[Se]c3cc([N+](=O)[O-])ccc32)cc1` (stereo not given): the IC50 in [1] came to 0.67 µM. Besides, the Ki in series [2] was determined as 0.24 µM.

`CS1(=O)=N[Se]c2cccc(Cl)c21` (stereo not given): in series [1], the IC50 is more than 50 µM. The Ki in series [2] was more than 18 µM.

`O=S1(c2ccccc2)=N[Se]c2ccccc21` (stereo not given): the IC50 in series [1] is more than 50 µM. Also, in series [2], the Ki is more than 18 µM.

As for `CCCc1ccc(S2(=O)=N[Se]c3cc(CCC)ccc32)cc1` (stereo not given), the IC50 in [1] amounted to 2.11 µM. Moreover, the Ki in series [2] was 0.76 µM.

Turning to `CN(CCOc1ccc(CC2SC(=O)NC2=O)cc1)c1ccccn1` (stereo not given) [ROSIGLITAZONE], the result (in series [3]; in the series with 3T3-L1) was inactive. Moreover, the Activity result in series [4], in [5], in series [6], in series [7], in series [8] and in series [9] was “Toxic” in each case. Also, the Activity result is listed as “Non-toxic” in series [10], “Toxic” in series [11], “Toxic” in [12] and “Toxic” in series [13].

Regarding `CS1(=O)=N[Se]c2ccc(Cl)cc21` (stereo not given), the IC50 in series [1] was more than 50 µM. The Ki in series [2] was more than 18 µM.

`Cc1ccccc1S1(=O)=N[Se]c2cccc(C)c21` (stereo not given): in series [1], the IC50 amounted to 39.3 µM. For the same compound, in [2], the Ki stood at 14.1 µM.

`Cc1ccc2c(c1)[Se]N=S2(C)=O` (stereo not given): the IC50 in series [1] is more than 50 µM. Also, in series [2], the Ki was more than 18 µM.

Take `CC(C)(C)c1ccc(S2(=O)=N[Se]c3cc(C(C)(C)C)ccc32)cc1` (stereo not given): in series [1], the IC50 worked out at 1.24 µM. For the same compound, the Ki in series [2] came to 0.45 µM.

Regarding `Cc1cccc(S2(=O)=N[Se]c3ccc(C)cc32)c1` (stereo not given), the IC50 in series [1] came to 8.26 µM. The Ki in series [2] worked out at 2.97 µM.

With `O=S1(CCl)=N[Se]c2ccccc21` (stereo not given), in [1], the IC50 was more than 50 µM. Also, the Ki in series [2] was more than 18 µM.

On to `COc1cccc(S2(=O)=N[Se]c3ccc(OC)cc32)c1` (stereo not given), for which, in [1], the IC50 stood at 3.28 µM. For the same compound, the Ki in [2] is 1.18 µM.

Consider `CS1(=O)=N[Se]c2ccccc21` (stereo not given), for which the IC50 in series [1] was more than 50 µM. Further, the inhibitory constant (Ki) in series [2] is more than 18 µM.

Turning to `O=S1(c2cccc(Cl)c2)=N[Se]c2ccc(Cl)cc21` (stereo not given), the half-inhibitory concentration (IC50) in series [1] stood at 0.64 µM. Besides, the Ki in [2] came out at 0.23 µM.

In the case of `O=S1(c2ccc(Cl)cc2)=N[Se]c2cc(Cl)ccc21` (stereo not given), the IC50 in series [1] came to 40.4 µM. Moreover, the Ki in series [2] amounted to 14.5 µM.

With `O=S(=O)(Oc1ccc(S2(=O)=N[Se]c3cc(OS(=O)(=O)C(F)(F)F)ccc32)cc1)C(F)(F)F` (stereo not given), the IC50 in series [1] was 2.48 µM. Further, the Ki in series [2] stood at 0.89 µM.

On to `O=S1(C2CC2)=N[Se]c2ccccc21` (stereo not given), for which the IC50 in series [1] was more than 50 µM. Moreover, the Ki in series [2] was more than 18 µM.

On to `COC(=O)c1ccc2c(c1)[Se]N=S2(C)=O` (stereo not given), for which the IC50 in [1] was more than 50 µM. The Ki in [2] was more than 18 µM.

Regarding `CCS1(=O)=N[Se]c2ccccc21` (stereo not given), in series [1], the IC50 was more than 50 µM. Moreover, in series [2], the Ki is more than 18 µM.

Consider `Cc1cc(C)cc(S2(=O)=N[Se]c3c(C)cc(C)cc32)c1` (stereo not given), for which the IC50 in [1] came to 38.2 µM. Further, the Ki in series [2] turned out to be 13.7 µM.

`O=S1(c2ccc(C(F)(F)F)cc2)=N[Se]c2cc(C(F)(F)F)ccc21` (stereo not given): the IC50 in [1] turned out to be 1.73 µM. For the same compound, the Ki in series [2] worked out at 0.62 µM.

Turning to `Cc1ccc(S2(=O)=N[Se]c3cc(C)ccc32)cc1` (stereo not given), the IC50 in [1] turned out to be 12.6 µM. Further, the Ki in [2] was 4.52 µM.

With `CS1(=O)=N[Se]c2cc(Cl)ccc21` (stereo not given), the IC50 in [1] was more than 50 µM. Further, in series [2], the Ki is more than 18 µM.

As to `O=S1(c2ccc(Br)cc2)=N[Se]c2cc(Br)ccc21` (stereo not given), the IC50 in series [1] was 1.48 µM. In addition, the Ki in [2] was 0.53 µM.
